In patent US10501479B2, “Benzenesulfonyl-asymmetric ureas and medical uses thereof” (HELSINN HEALTHCARE SA, priority 2016, dated 2019):
Like-named read-outs stand apart in the source and are kept apart here.

Experiments:
[1] = biological target: T1, recombinant human ghrelin receptor (HEK293/GRLN) (Homo sapiens, UniProt Q92847); assay: Ghrelin inverse agonist potency (EC50) with IP-1 (IP-One HTRF) assay; type: cell-based; details: IP-1 assay
T1 construct: expressed in transfected cells
How it was run: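 HEK293/GRLN cells were seeded 18-22 hours before the test, then exposed to compound in stimulation buffer for 1 hour at 37° C, 5% CO2. IP-1 was detected by IP-One HTRF (IP1-d2 plus Tb-cryptate, 1 hour RT), reading 620 and 665 nm; the inverse agonist EC50 was derived from this.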

[2] = biological target: T2, GHSR-1a (HEK293/GHSR1a cell line) (Homo sapiens, UniProt Q92847); assay: Ghrelin antagonist potency (IC50) with calcium FLIPR assay, ghrelin 10 nM; type: cell-based
T2 construct: expressed in transfected cells; host or cells: HEK293/GHSR1a cell line
How it was run: (§1)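 Cells seeded 24 h before the run were loaded with calcium dye for 30-60 min at room temperature or 37° C. For agonism, compound was added at t=20 sec and the calcium signal followed for 2 minutes. For antagonism, compound plus ghrelin (10 nM) went on at t=20 sec, and IC50 reflected the drop in ghrelin response.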

[3] = Metabolic stability in human liver microsomes; type: in vitro ADME
How it was run: (§2)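 Test compounds were incubated with liver microsomes in 100 mM potassium phosphate buffer, pH 7.4, at 37 °C, with reactions started by an NADPH regenerating system after a 5 min preincubation. Samples taken at 0, 10, 30 and 90 min were quenched cold, centrifuged, and parent remaining was quantified by LC-MS/MS.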

[4] = Metabolic stability in dog liver microsomes; type: in vitro ADME
Procedure: (§3) Metabolic Stability Study
(§4) The metabolic stability of compounds in human, dog, rat and mouse liver microsomes was performed according the experimental conditions reported below:
(§5) • a) Prepare the following 5 stock solutions: • 1. Test compound stock solutions: dilute 10 mM solution of dextromethorphan (Dtr) in DMSO, 10 mM solution of diphenhydramine (DPA) in DMSO, 10 mM solution of omeprazole (Ome) in DMSO, 10 mM solution of verapamil (Ver) in DMSO, and 10 mM of an inverse agonist compound in DMSO to 0.25 mM solution each with acetonitrile/water (70/30). • 2. Buffer: 100 mM potassium phosphate Buffer (PBS) at pH 7.4 • 3. Liver microsomes (20 mg/ml): Thaw in 37° C. water bath quickly • 4. 2000 μL: of NADPH regenerating system (1.3 mM). Place this system on ice before use:
(§6) • 5. […] The test compound concentration in the wells, measured by LC-MS/MS, represents the concentration at time=0. • f) To determine the test compound concentration when t≠0, pre-incubate the NADPH regenerating system and the incubation plate containing the remaining 320 μL of incubation mixture (microsomes protein and test compound) for 5 minutes at 37° C. • g) Start the incubation reaction by adding 80 μL NADPH regenerating system to each well containing the remaining 320 μL incubation mixture. • h) After 10 min., 30 min., and 90 min. of incubation at 37° C., transfer 100 μL of the incubation mixture (microsomes protein, test compound, and NADPH) into the wells of a stop plate pre-filled with 300 μL of the cold quench solution. Shake well. • i) Centrifuge the stop plate at 5000×g for 10 minutes. Collect and dilute the supernatant 3 times with distilled water. Sample and analyze the test compound concentration for all the wells by LC-MS/MS. Animal PK Studies via i.v. (intravenous), p.o. (orally) and s.c. (subcutaneous) administrations

[5] = Metabolic stability in rat liver microsomes; type: in vitro ADME
Procedure: as §3, §4, §5, §6

[6] = Metabolic stability in mouse liver microsomes; type: in vitro ADME
How it was run: as §2

[7] = Animal PK study in mouse via i.v., p.o. and s.c. administration; type: in vivo
How it was run: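 Single i.v. (tail vein), s.c. (neck scruff) or p.o. (gavage) dose to mice or rats; oral vehicle 1–5% DMSO/0.5% methylcellulose, i.v./s.c. vehicle 1–5% DMSO in 20% HP-β-cyclodextrin. Plasma sampled 0.083 (i.v./s.c.) or 0.25 to 24 h, analyzed by LC-MS/MS.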

[8] = Animal PK study in rat via i.v., p.o. and s.c. administration; type: in vivo; details: rat
[9] = biological target: T2, GHSR-1a (HEK293/GHSR1a cell line); assay: Ghrelin agonist potency (EC50) with calcium FLIPR assay; type: cell-based
How it was run: as §1

[10] = inverse agonist potency, read-out: EC50 (Activity)
[11] = ghrelin antagonist potency, read-out: IC50 (Activity)
[12] = HEK293/GRLN, read-out: Activity EC50 (ghrelin inverse agonist potency)
[13] = HEK293/GHSR1a, read-out: Activity EC50/EMax: EC50 (ghrelin agonist potency)
[14] = HEK293/GHSR1a, ghrelin 10 nM, read-out: Activity IC50 (ghrelin antagonist potency)
[15] = ghrelin inverse agonist potency, read-out: Activity EC50
[16] = ghrelin agonist potency, read-out: Activity EC50/EMax
[17] = ghrelin antagonist potency, read-out: Activity IC50

T2 sequence (Q92847 whole entry): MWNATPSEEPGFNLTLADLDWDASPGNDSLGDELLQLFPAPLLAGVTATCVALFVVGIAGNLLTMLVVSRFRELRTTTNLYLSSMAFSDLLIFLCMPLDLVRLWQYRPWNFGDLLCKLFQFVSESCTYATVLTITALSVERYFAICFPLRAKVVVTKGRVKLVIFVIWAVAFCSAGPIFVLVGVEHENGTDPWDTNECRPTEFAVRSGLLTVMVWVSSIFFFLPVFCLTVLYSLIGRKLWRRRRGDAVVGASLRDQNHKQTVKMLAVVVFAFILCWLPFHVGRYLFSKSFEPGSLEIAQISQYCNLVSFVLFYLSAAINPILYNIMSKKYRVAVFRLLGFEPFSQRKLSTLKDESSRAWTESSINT
T1 sequence (Q92847 whole entry): as above

Structure (SMILES) | Metabolic Stability Study H = human [3] | Metabolic Stability Study D = dog [4] | Metabolic Stability Study R = rat [5] | Metabolic Stability Study M = mouse [6] | EC50 [1, 12] | IC50 [2, 14] | EC50 [1, 15] | EC50 [9, 16] | IC50 [2, 17] | further results
COc1ccc([C@H](C)NC(=O)Nc2ccc(S(=O)(=O)Nc3ccc(CC(C)(C)N)cc3)cc2)c(Cl)c1Cl [H0937, (S)-N-(4-(2-amino-2-methylpropyl)phenyl)-4-(3-(1-(2,3-dichloro-4-methoxyphenyl)ethyl)ureido) benzenesulfonamide] | H = <10 M = <10 R = <10 D = <10 μL/min/mg | H = <10 M = <10 R = <10 D = <10 μL/min/mg | H = <10 M = <10 R = <10 D = <10 μL/min/mg | H = <10 M = <10 R = <10 D = <10 μL/min/mg |  |  |  |  |  | EC50 [1, 10]: 12.7 nM; IC50 [2, 11]: 84 nM
C[C@H](NC(=O)Nc1ccc(S(=O)(=O)Cc2ccc3c(c2)CCNC3)cc1)c1cccc(Cl)c1Cl [H1027, (S)-1-(1-(2,3-dichlorophenyl)ethyl)-3-(4-(((1,2,3,4-tetrahydroisoquinolin-6-yl)methyl)sulfonyl)phenyl)urea] | H = <10 M = <10 R = not reported D = not reported μL/min/mg |  |  | H = <10 M = <10 R = not reported D = not reported μL/min/mg |  |  |  |  |  | EC50 [1, 10]: 1.62 nM; IC50 [2, 11]: 2.5 nM; PK F [7]: F = 0.72 (M); %; PK CLiv ([7]; i.v.): 11.8 mL/min/kg; PK Vdiv ([7]; i.v.): 1.64 L/kg; PK t1/2iv ([7]; i.v.): 1.61 (M); h; PK CLpo ([7]; p.o.): 1428 mL/min/kg; PK Vdpo ([7]; p.o.): 345 (M); L/Kg; PK t1/2po ([7]; p.o.): 2.79 (M); h; PK F [8]: 57.14 (R) %; PK CLiv ([8]; i.v.): 205.7 mL/min/kg; PK Vdiv ([8]; i.v.): 168.2 L/kg; PK t1/2iv ([8]; i.v.): 10.2 (R) h; PK CLpo ([8]; p.o.): 416.3 mL/min/kg; PK Vdpo ([8]; p.o.): 80.4 (R) L/Kg; PK t1/2po ([8]; p.o.): 2.21 (R) h
C[C@H](NC(=O)Nc1ccc(S(=O)(=O)Cc2ccc3[nH]ccc3c2)cc1)c1cccc(Cl)c1Cl [H1142, (S)-1-(4-(((1H-indol-5-yl)methyl)sulfonyl)phenyl)-3-(1-(2,3-dichlorophenyl)ethyl)urea] | 114.9 µL/min/mg |  | 209.6 µL/min/mg | 151.4 µL/min/mg |  |  |  |  |  | EC50 [1, 10]: 440 nM
CC(NC(=O)Nc1ccc(S(=O)(=O)Cc2cc(F)c3c(c2)CCN(C)C3)cc1)c1cccc(Cl)c1Cl (centres unmarked) [H1378, 1-(1-(2,3-dichlorophenyl)ethyl)-3-(4-(((8-fluoro-2-methyl-1,2,3,4-tetrahydroisoquinolin-6-yl)methyl)sulfonyl)phenyl)urea] | 151.7 µL/min/mg | 227.9 µL/min/mg |  | 245.9 µL/min/mg | 1.3 nM | 19 nM |  |  |  | EC50 [9, 13]: > 30000 nM
CC(NC(=O)Nc1ccc(S(=O)(=O)Cc2nc3c(s2)CN(C)CC3)cc1)c1cccc(Cl)c1Cl (centres unmarked) [H1379, 1-(1-(2,3-dichlorophenyl)ethyl)-3-(4-(((5-methyl-4,5,6,7-tetrahydrothiazolo[5,4-c]pyridin-2-yl)methyl)sulfonyl)phenyl)urea] | 261.6 µL/min/mg | > 500 µL/min/mg |  | > 500 µL/min/mg | 1.43 nM | 44.3 nM |  |  |  | EC50 [9, 13]: > 30000 nM
CC(NC(=O)Nc1ccc(S(=O)(=O)Cc2ccc3c(c2)CC(C)N(C)C3)cc1)c1cccc(Cl)c1Cl (centres unmarked) [H1380, 1-(1-(2,3-dichlorophenyl)ethyl)-3-(4-(((2,3-dimethyl-1,2,3,4-tetrahydroisoquinolin-6-yl)methyl)sulfonyl)phenyl)urea] | 137 µL/min/mg | 169.9 µL/min/mg |  | 66.5 µL/min/mg | 0.367 nM | 2.3 nM |  |  |  | 
COc1ccccc1C(C)NC(=O)Nc1ccc(S(=O)(=O)Cc2ccc3c(c2)CNC3)cc1 (centres unmarked) [H1382, 1-(4-((isoindolin-5-ylmethyl)sulfonyl)phenyl)-3-(1-(2-methoxyphenyl)ethyl)urea] | 42.4 µL/min/mg | 41.9 µL/min/mg |  | 43.4 µL/min/mg | 2.68 nM | 34.3 nM |  |  |  | EC50 [9, 13]: > 30000 nM
CC(NC(=O)Nc1ccc(S(=O)(=O)Cc2ccc3c(c2)CCNC3)cc1C(=O)O)c1ccccc1 (centres unmarked) [H1541, 2-(3-(1-phenylethyl)ureido)-5-(((1,2,3,4-tetrahydroisoquinolin-6-yl)methyl)sulfonyl)benzoic acid] | H = <10 R = <10 μL/min/mg |  | H = <10 R = <10 μL/min/mg |  |  |  | 9.7 nM | > 30000 nM | 72.3 nM | 
CC(NC(=O)Nc1ccc(S(=O)(=O)Cc2ccc3c(c2)CCNC3)cc1C(=O)O)c1cccc(Cl)c1Cl (centres unmarked) [H1542, 2-(3-(1-(2,3-dichlorophenyl)ethyl)ureido)-5-(((1,2,3,4-tetrahydroisoquinolin-6-yl)methyl)sulfonyl)benzoic acid] | < 10 µL/min/mg |  | 13.3 µL/min/mg |  |  |  | 1.9 nM | > 30000 nM | 1.69 nM | 
COc1cc(S(=O)(=O)Cc2ccc3c(c2)C(F)CNC3)ccc1NC(=O)N[C@H](C)c1cccc(Cl)c1Cl (stereo partly drawn) [H1543, 1-((R)-1-(2,3-dichlorophenyl)ethyl)-3-(4-(((4-fluoro-1,2,3,4-tetrahydroisoquinolin-6-yl)methyl)sulfonyl)-2-methoxyphenyl)urea] | 46.8 µL/min/mg |  | 204.6 µL/min/mg |  |  |  | 12.6 nM | > 30000 nM | 15.9 nM | 
COc1cc(S(=O)(=O)Cc2ccc3c(c2)C(F)CN(C)C3)ccc1NC(=O)N[C@H](C)c1cccc(Cl)c1Cl (stereo partly drawn) [H1544, 1-((R)-1-(2,3-dichlorophenyl)ethyl)-3-(4-(((4-fluoro-2-methyl-1,2,3,4-tetrahydroisoquinolin-6-yl)methyl)sulfonyl)-2-methoxyphenyl)urea] | 323.3 µL/min/mg |  | 427.2 µL/min/mg |  |  |  | 9.7 nM | > 30000 nM | 40.4 nM | 
